# Key:
# [1] = system: Dirofilaria immitis microfilariae; test: Microfilaricidal activity against Dirofilaria immitis microfilariae in 96-well plates; assay type: cell-based; conditions: in Canis lupus familiaris, read-out: EC50 (half maximal effective concentration), microfilaricidal activity
# [2] = system: L4 larvae of Dirofilaria immitis; test: microbe, parasite or virus in culture; assay type: cell-based; conditions: 72 h, read-out: MIC100 (lowest dose that results in complete loss of motility)
smiles,measurement,setting,value
C[C@@H](CN1CCN(c2ccc(OC(F)(F)F)cc2)CC1)C(=O)N1CCC(Nc2ccc([N+](=O)[O-])c(C(F)(F)F)c2)CC1 [Example 1037],EC50,[1],< 10 µM
same,MIC,[2],< 5 µM
